# According to US12030908B2, “Antimicrobial compounds, compositions, and uses thereof” (Lakewood Amedex, Inc., priority 2017, dated 2024):
# Read-outs that look alike come from different tables or passages of the source.
# Tests used:
# [1] = pKa measurement; assay type: physicochemical
# [2] = test system: E. coli; experiment: Broth microdilution MIC at incremental pH, E. coli; assay type: cell-based
# Description: MIC testing is conducted using the broth (Mueller Hinton Broth) microdilution procedures relevant to each organism group as established by the Clinical and Laboratory Standards Institute (CLSI; 3-7). MIC plates are prepared in accordance with CLSI (3-7). To prepare the test plates, automated liquid handlers are used to conduct serial dilutions and liquid transfers. Automated liquid handlers utilized in this study include the Multidrop 384 (Labsystems, Helsinki, Finland) and the Biomek 2000 (Beckman Coulter, Fullerton CA). The solution is diluted to desired pH using 1 M Citric Acid or 1 M NaOH buffer. A standardized inoculum of each test organism is prepared per CLSI methods (3, 5-7) to equal a 0.5 McFarland standard in the appropriate media followed by an additional 1:20 dilution (1:10 for anaerobes).
# The plates are then inoculated with 10 μL of the diluted 0.5 McFarland suspension using the Biomek 2000 from low to high drug concentration, resulting in a final concentration of approximately 5×10^5 CFU/mL per well. An un-inoculated plate is incubated for the purpose of assessing solubility of the drug in the test media. The plates are stacked 3 to 4 high, covered with a sterile lid on the top plate, and incubated for 18 to 24 hours according to CLSI. The MIC is recorded as the lowest concentration of respective compound that inhibited visible growth of the organism.
# [3] = test system: E. coli; experiment: MIC in lysogeny broth (LB) at pH 4; assay type: cell-based
# Description: (§1) The MICs are also determined using lysogeny broth (LB) at pH 4 as the growth medium. Under these conditions, Nu-8 is active against E. coli and P. aeruginosa with MICs of 54 and 27 mg/mL, respectively.
# [4] = test system: P. aeruginosa; experiment: MIC in lysogeny broth (LB) at pH 4; assay type: cell-based
# Description: as §1
# [5] = test system: methicillin resistant Staphylococcus aureus (USA300); assay type: in vivo, SKH-1 hairless mice; details: for decrease in CFU burden: 6 hours post challenge
# Description: SKH-1 hairless mice have the outer layer of skin cells removed by stripping with 7 applications and removals of surgical tape. Immediately following tape stripping, mice receive a topical inoculation of methicillin resistant Staphylococcus aureus (USA300) at a targeted challenge of 6.0 log10 CFU. Four hours following challenge, mice are treated with test articles or vehicle controls, and at two hours following treatment, mice have skin harvested for CFU burden enumeration.
# SKH-1 mice are obtained from Charles River Laboratories. The age of the mice on Day 0 is approximately 6-8 weeks. Only female mice are selected for the study. Animals are handled in accordance with AUP number TP-18. Mice are housed in solid-bottom micro-isolator cages on stainless steel racks. Animals are fed irradiated Teklad Global 2918 Rodent Diet and water ad libitum. Bedding is provided in the form of irradiated Teklad ⅛″ corn cob bedding 7902. Animals are maintained in a bioBubble® Clean Room which provides H.E.P.A filtered air into the bubble environment at 100 complete air changes per hour. The environment is controlled to a temperature range of 74°±5° F. and a humidity range of 30-70%. Fluorescent lighting provides illumination for 12 hours per day. Mice are acclimated for a minimum of 24 hours prior to study start. The animals are observed for general health and acceptability for use in this study. Only animals deemed healthy are included in this study.
# On Day 0 immediately prior to infection, each mouse is anesthetized using isoflurane and the dorsal area receives 7 applications and removals of Nexcare™ (3M) surgical tape in order to remove the outermost epidermal layer of skin.
# The challenge microorganism is prepared. Methicillin resistant Staphylococcus aureus (USA300) is grown overnight at 37° C. at ambient atmosphere trypticase soy agar plates supplemented with 5% sheep blood cells. The culture is aseptically swabbed and transferred to tubes sterile water until optical density reaches approximately 0.75 at 600 nm. The cultures are diluted to provide challenge inoculate of 6.0 log10 CFU per mouse in a volume of 100 μL. Inoculum count is estimated before inoculation by optical density and confirmed after inoculation by dilution and back count.
# On Day 0 at 0 hours, animals are anesthetized using isoflurane, brought to a surgical plane, and infected with bacteria via topical application, spread in the tape stripped area of approximately 0.75″×0.75″. Challenge is allowed to dry slightly before mice are brought out of anesthesia.
# The test articles are prepared in a manner to minimize endotoxin and bacterial contamination. A 10% (100 mg/mL) solution of Nu-8 is prepared in 0.9% sterile saline. A 20% Nu-8 solution for 50/50 mixture in a hydrogel vehicle (for 10% final Nu-8 concentration) is made using sterile water. Citric acid is used to adjust the solutions to pH 3.5. The test articles are stored at 4° C.
# A 0.9% sterile saline adjusted to pH 3.5 with citric acid is prepared as a vehicle/negative control and stored at room temperature. A hydrogel vehicle adjusted to pH 3.5 with citric acid is prepared as another vehicle/negative control. The hydrogel vehicle is prepared by mixing equal volumes of hydrogel and 0.9% sterile saline with final pH of the mixture adjusted to pH 3.5.
# At exactly four hours following challenge, mice in Groups 2-5 receive a topical application of Nu-8 (in either saline or hydrogel vehicle), saline vehicle, or gel vehicle, in a volume of […] spread on the dorsal area previously stripped and inoculated with bacteria. […] Mice are housed individually following treatment until harvest time.
# Mice are observed at least twice daily during the study period and are randomly assigned to experimental groups as shown in TABLE 10. At the time indicated in TABLE 10, mice are humanely euthanized via CO2 overexposure. Mice are harvested at 6 hours post challenge (2 hours post-treatment). […]
# [6] = Body weight in the Acinetobacter baumannii lung infection model (Example 25); assay type: in vivo, BALB/c mice
# [7] = Nu-8 (10%), 3 doses, once daily for 3 days
# [8] = Nu-8 (10%), 5 doses, once daily for 5 days
structure (smiles),measurement,setting,value
"CCCCOP(=O)(O)OC[C@H]1O[C@@H](n2ccc(N)nc2=O)C[C@@H]1OP(=O)(O)OCCCC [Nu-8, sodium ((2R,3S,5R)-5-(4-amino-2-oxopyrimidin-1(2H)-yl)-3-((butoxyoxidophosphor-yl)oxy)tetrahydrofuran-2-yl)methyl butyl phosphate]",pKa,[1],3.20
same,MIC,[2]; pH 1,9.8 mg/mL
same,MIC,[2]; pH 3,37.5 mg/mL
same,MIC,[2]; pH 4,75 mg/mL
same,MIC,[2]; pH 5,>75 mg/mL
same,MIC,[2]; pH 7,>75 mg/mL
same,MIC,[3],54 mg/mL
same,MIC,[4],27 mg/mL
same,decrease in CFU burden,"[5]; 10% Nu-8 in hydrogel pH 3.5, topical",~1.0 log10 reduction
same,decrease in CFU burden,"[5]; 10% Nu-8 in saline pH 3.5, topical",~1.0 log10 reduction
same,percentage reduction compared to the controls (FIG. 3),[5]; Nu-8 gel,87%
same,colony forming units (FIG. 1),"[5]; Nu-8 hydrogel, two hours post treatment","approximately 40,000 CFU per square millimeter"
same,reduction in bacteria vs saline and gel controls,"[5]; Nu-8 in saline or hydrogel, two hours post treatment",ten-fold
same,colony forming units (FIG. 1),"[5]; Nu-8 in saline, two hours post treatment","approximately 30,000 CFU per square millimeter"
same,percentage reduction compared to the controls (FIG. 3),[5]; Nu-8 saline,90%
same,acute adverse events associated with the treatments,"[5]; topical, 10% Nu-8 in saline or hydrogel",None of the study subjects displayed any acute adverse events
same,Body Weight (g) Mean ± SD Day 0,[6]; [7],25.0 ± 0.6 g
same,Body Weight (g) Mean ± SD Day 1,[6]; [7],24.3 ± 0.5 g
same,Body Weight (g) Mean ± SD Day 3,[6]; [7],23.7 ± 0.5 g
same,Body Weight (g) Mean ± SD Day 0,[6]; [8],24.8 ± 0.8 g
same,Body Weight (g) Mean ± SD Day 1,[6]; [8],24.0 ± 0.6 g
same,Body Weight (g) Mean ± SD Day 2,"[6]; Nu-8 (10%), 5 doses, once daily for 5 days, Day 2",23.3 ± 0.5 g
same,Body Weight (g) Mean ± SD Day 3,[6]; [8],23.2 ± 0.8 g
same,Body Weight (g) Mean ± SD Day 4,"[6]; Nu-8 (10%), 5 doses, once daily for 5 days, Day 4",23.3 ± 1.0 g
same,Body Weight (g) Mean ± SD Day 5,"[6]; Nu-8 (10%), 5 doses, once daily for 5 days, Day 5",24.0 ± 0.6 g
same,Body Weight (g) Mean ± SD Day 0,"[6]; Nu-8 (10%), single dose",24.8 ± 0.8 g
same,Body Weight (g) Mean ± SD Day 1,"[6]; Nu-8 (10%), single dose",24.0 ± 0.9 g
same,change in mean body weights,[6]; vehicle and treatment groups,Decreases in mean body weights were observed
